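Method: 48-hour compound exposure of cells in 96-well plates, five concentrations, linear interpolation of endpoints. GI50 = concentration required for 50% inhibition of growth. Definition used: TGI = concentration required for complete inhibition of growth.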

Holding throughout (test): NCI-60 cell line screen, 48 h
In test [1] the test system is SNB-78 CNS.
In test [2] the test system is DLD-1 colon.
In test [3] the test system is XF 498 CNS.
For test [4], the system named is DMS 273 small cell lung.
The test system of test [5] is M19-MEL melanoma.
Test [6] relates to HOP-18 NSCLC.
The subject of test [7] is DMS 114 small cell lung.
Test [8] concerns MDA-N.
Test [9] has as its system RXF-631 renal.

Consider `COC(=O)[C@@]12C3=NO[C@]1(C(=O)OC)C(O[Si](C)(C)C(C)(C)C)[C@@H](OC(C)=O)[C@@H](OC(C)=O)[C@@H]2[C@@H](OCc1ccccc1)CC3` (some centres undefined), for which the TGI in [1], in test [2], in test [3], in test [4], in [5] and in test [6] was over 100 µM in each case. In [7], this compound came in with a TGI of over 100 µM.

For `COc1ccc(C(O)c2ccccn2)cc1` (centres undefined), the TGI in [8] was over 100 µM.

With `Cc1ccc(S(=O)(=O)NNS(C)(=O)=O)cc1`, the TGI in test [2], in test [4], in test [5] and in test [7] was over 100 µM each time.

With `CCC(c1ccccc1)c1cc(C(C)(C)C)cc(C(C)(C)C)c1O` (centres undefined), the TGI in [8] was found to be 30.9 µM.

On to `CC(=O)OCC1OC(n2c(=S)n(-c3ccccc3)c(=O)c3cc(Br)ccc32)C(OC(C)=O)C1OC(C)=O` (centres undefined), for which the TGI in [1], in test [2], in test [3], in [4], in [5] and in test [6] was over 100 µM each time. This compound displayed a TGI in [7] of over 100 µM.

As to `NS(=O)(=O)c1ccc(N=Nc2c[nH]c(=O)c(O)c2)cc1`, in test [8], the TGI was over 100 µM.

On to `COc1ccc2c(c1)[n+]([O-])c(-c1ccccc1Cl)c(N)[n+]2[O-]`, for which the TGI in [1], in test [2], in [4], in test [5], in test [9] and in test [6] was over 100 µM in each case. This compound also registered a TGI in test [7] of over 100 µM.

For `CSc1nc(SC)c2c(C)cn(COCCOC(=O)c3ccccc3)c2n1`, in [8], the TGI is over 100 µM.

Turning to `CC(=O)C1C(=O)C(=O)N(CCN2C(=O)C(=O)C(C(C)=O)C2=O)C1=O` (centres undefined), the TGI in test [3], in test [4], in test [5], in test [9], in test [6] and in test [7] was over 100 µM each time.

In turn, `O=C1C=CC(=O)c2c1nc(CBr)[nH]c2=O` came in with a TGI in test [8] of over 100 µM.

Take `N#Cc1ccc(C2SCc3nc4ccccc4n32)cc1` (centres undefined): the TGI in test [1], in test [2], in test [3], in test [4], in test [5] and in [6] was over 100 µM throughout.

`CCCCOC(=O)NC(=O)c1cn(CCCOC(=O)CCCCCCCCC(=O)OCCCn2cc(C(=O)NC(=O)OCCCC)c(=O)n(C)c2=O)c(=O)n(C)c1=O`: the TGI in test [1], in test [2], in test [3], in [4], in [5] and in test [9] was over 100 µM each time. The compound further returned a TGI in test [7] of over 100 µM.

Consider `CC1(C)C(=O)/C=C\C(=O)C(C)(C)C(=O)/C=C\C(=O)C(C)(C)C2=CC=C(O2)C(C)(C)C(=O)/C=C\C1=O`, for which the TGI is 15.7 µM in test [1]; 3.61 µM in test [2]; 3.86 µM in test [3]; 10.1 µM in test [4]; 13.6 µM in test [5]; over 52.7 µM in test [9]. Moreover, the TGI in test [6] was 37.1 µM; in test [7], 21 µM; in [8], 19.1 µM.

As to `CCN(CC)c1ccc(C2N3CCCCC3[C@@H]3c4[nH]c5ccccc5c4CCN23)cc1` (some centres undefined), the TGI is 61.3 µM in test [1]; over 100 µM in [2]; 41 µM in [3]; over 100 µM in test [4]; 57.1 µM in [5]; over 100 µM in [6]. Moreover, in test [7], the TGI is 33.1 µM.

In the case of `CC(=O)CC(=O)Nc1ccccc1C(F)(F)F`, the TGI in test [1], in [2], in test [3], in [5], in test [9] and in test [7] was over 100 µM in each case.

Regarding `CSc1nnc(C(C#N)C#N)nn1`, the TGI in test [1], in test [2], in [3], in test [4], in test [5] and in [9] was over 100 µM each time. For the same compound, the TGI in test [7] was over 100 µM.

On to `CCCCCCCCCCCCCS(=O)(=O)NCC(N)=O`, for which the TGI in [1], in [2], in test [3], in test [5], in test [6] and in test [7] was over 100 µM in each case.

`N=C(CC(=O)Nc1ccccn1)c1ccccc1`: the TGI in test [8] was over 100 µM.

Take `CCN(CC)c1c(C)nnn1C1OC(COC(C)=O)C(OC(C)=O)C(OC(C)=O)C1OC(C)=O` (centres undefined): the TGI in [1], in test [2], in test [5], in test [9], in test [6] and in test [7] was over 100 µM throughout.

Consider `COc1cc(O)c(C(=O)/C=C/c2ccc(OC)c(OCc3ccccc3)c2)c(OC)c1`, for which the TGI in test [1] was 6.52 µM; in test [2] it was over 100 µM; in test [3], over 100 µM; in [4], 1.76 µM; in [5] it was over 100 µM; in test [6] it was over 100 µM.

Regarding `CC(=O)Nc1ccc(/C=c2\sc3nnc(-c4cccnc4)n3c2=O)cc1`, the TGI is over 100 µM in [1]; 40.7 µM in [2]; 68.5 µM in test [4]; 37.4 µM in [5]; 55.2 µM in test [9]; 55.6 µM in test [6]. In test [7], this compound gave a TGI of 32.4 µM.

Take `Cc1ccc(S(=O)(=O)C2CC2(Cl)Cl)cc1` (centres undefined): the TGI was 61.1 µM in [2]; 45.2 µM in test [3]; over 100 µM in test [4]; 67.7 µM in test [5]; 50.8 µM in [9]; 39.8 µM in test [7].

Consider `CCN(CC)C(=S)SS(C)(=O)=O`, for which the TGI in test [1] was 43.7 µM; in test [2], 33.3 µM; in test [4], 36 µM; in test [5], 30.6 µM; in test [6], over 100 µM.

Take `O=C(N/C(=C\c1ccc(/C=C(\NC(=O)c2ccccc2)c2nc3c(O)nc(S)nc3[nH]2)cc1)c1nc2c(O)nc(S)nc2[nH]1)c1ccccc1`: the TGI in test [1], in [2], in test [3], in test [4], in test [9] and in test [6] was over 100 µM throughout. Besides, the TGI in [7] is over 100 µM.

For the compound `NC(=O)c1ncn(C2OC(CO)C(O)C2O)c1O` (centres undefined), the TGI in [1], in [3], in test [5], in test [9], in test [6] and in [7] was over 100 µM in each case.

As to `O=C1[C@@H]2C(c3ccccc3[N+](=O)[O-])=NO[C@@H]2C(=O)N1c1ccc(Cc2ccc(N3C(=O)[C@H]4C(c5ccccc5[N+](=O)[O-])=NO[C@H]4C3=O)cc2)cc1`, the TGI in test [1], in test [2], in [6] and in test [7] was over 100 µM throughout.

Take `COc1ccc(C(=O)C(C(=O)C(=O)NCCCNC(=O)C(=O)C(C(=O)c2ccc(OC)cc2)c2ccc(OC)cc2)c2ccc(OC)cc2)cc1` (centres undefined): the TGI in [1], in [2], in test [3], in test [4], in [6] and in test [7] was over 100 µM in each case.

With `Cc1ccc(Nc2nc(-c3ccc(-c4ccc([N+](=O)[O-])cc4)o3)cs2)cc1`, the TGI in [1], in test [2], in test [4] and in [5] was over 100 µM each time.

For the compound `CC1=C2C=CC(=O)C[C@@]2(C)CCC1`, the TGI in test [1], in test [2], in test [3], in [4], in [5] and in test [9] was over 100 µM throughout. Moreover, the TGI in test [7] was over 100 µM.

Consider `CC(=O)[CH-]C(=O)c1ccccc1.CC(=O)[CH-]C(=O)c1ccccc1.CC(=O)[CH-]C(=O)c1ccccc1.[Ga+3]`, for which the GI50 is 16.6 µM in [2], 13.4 µM in test [5] and 18 µM in [6]. In addition, the TGI in [2] is 53.6 µM; in [5], 30.5 µM; in [6] it was 61.5 µM.

As for `CN(C)N=Nc1ccc(S(N)(=O)=O)cc1`, the TGI in test [2], in test [3], in test [4], in test [5], in test [6] and in test [7] was over 100 µM in each case.

For `COc1ccc(/C=C/c2ccnc3ccccc23)cc1OC`, in test [8], the TGI worked out at 27 µM.

Take `CN1CCN(c2nc(N)c(Br)c(Cl)n2)CC1`: the TGI in test [1], in test [2], in [3], in test [4], in test [5] and in [7] was over 100 µM throughout.

In test [8], `C=CCSC(C)=O` yielded a TGI of over 100 µM.

For the origin of these results see PubChem BioAssay (NCI).
